# Conditions: buffer; pH 7.4; 200.0 µM
row,Structure (SMILES),solubility kinetic [µg/mL]
1,O=C(NCC(=O)N1CCCCCC1)c1ccc(OC(F)F)cc1,> 49
2,O=C(c1ccc(Cl)cc1)N1CCc2c([nH]c3ccccc23)C1C(F)(F)F (centres undefined),1.4
3,CNCCc1ccc(OC)c(OC)c1,> 29.3
4,Cl.c1cncc(CNCc2ccco2)c1,> 33.7
5,Oc1cccc(C(=S)N2CCC(Cc3ccccc3)CC2)c1,15
6,Cc1nn(C)c(Cl)c1CN1CCN(C2CCCC2)C(CCO)C1 (centres undefined),> 51.1
7,COc1ccc(C(=O)Nc2ccc3c(c2)OCCO3)cc1[N+](=O)[O-],< 0.4
8,CCN(CC(=O)Nc1cccc(OC)c1)C(=O)c1ccncc1,37.2
9,CC(Nc1cccc(F)c1)C(=O)Nc1ccc(S(N)(=O)=O)cc1 (centres undefined),> 50.6
10,Cc1ccc(CNC(=O)c2cccnc2Sc2cccc(Cl)c2)cc1,0.5
11,N#Cc1ccc2c(c1)nc1ccccn12,> 29
12,COc1ccccc1CNC(=O)Cn1c(=O)oc2cc(Cl)ccc21,1.7
13,Cc1noc(C)c1-c1nc(CS(=O)(=O)c2ccc(F)cc2)no1,43.4
14,O=[N+]([O-])c1c(NCc2ccco2)ccc2nonc12,38.4
15,CC(C)c1ccc(N2C(=O)C3C4C=CC(CC4)C3C2=O)cc1 (centres undefined),2.7
16,COc1ccc(NC(=O)CS(=O)c2ccccc2Cl)cc1 (centres undefined),> 48.6
17,Cc1cc(=O)oc2cc(NC(=O)c3ccccc3C(=O)O)ccc12,> 48.5
18,COc1ccc(/C=C/C(=O)O)cc1S(=O)(=O)NCc1ccco1,48.8
19,CC(C)(C)c1ccc(C(=S)N2CCN(c3ccccc3)CC2)cc1,< 0.4
20,CC1CCCN(C(=O)CNC(=O)c2ccco2)C1 (centres undefined),> 37.5
21,COc1ccccc1NC(=O)COc1ccc2ccccc2c1,2.5
22,Cc1ccsc1CN(C)CC(=O)Nc1ccccc1C(=O)NC1CC1,> 53.6
23,CCN(CC)CC(=O)Nc1sc(C)cc1C(=O)c1ccc(C)cc1,0.4
24,O=C(c1ccc([N+](=O)[O-])o1)N1CCc2ccccc21,2.6

row,Structure (SMILES),solubility kinetic [µg/mL]
1,O=C(COC(=O)c1cccc(Br)c1)NCCC1=CCCCC1,2.5
2,Cc1ccc(S(=O)(=O)N2CCCCC2)cc1NC(=O)C1CCC1,16.4
3,COc1ccc(N(C)C(=O)Nc2ccc3nsnc3c2)cc1,27.5
4,O=C(O)c1ccc(NC(=S)NC(=O)c2cccnc2)cc1,> 45.2
5,OC(CNCCNc1ncccc1C(F)(F)F)COc1ccc(F)cc1 (centres undefined),50.9
6,O=C(NCC1CCCO1)c1cccc(NC(=O)c2ccccc2)c1 (centres undefined),> 48.7
7,O=C(COC(=O)/C=C/c1ccccc1)NCCc1ccc(F)cc1,3.5
8,COc1cc(OC)cc(C(=O)OCC(=O)Nc2cccc(S(=O)(=O)NC3=NCCCCC3)c2)c1,33.3
9,Cc1ccc(C(O)(CNCc2ccccc2)c2ccccc2)cc1 (centres undefined),26.2
10,COc1ccccc1N1CCN(C(=S)NC(=O)/C=C/c2ccccc2)CC1,1.3
11,CC1CCCC(C)N1C(=O)COC(=O)c1ccc2ccccc2n1 (centres undefined),15.3
12,Cc1nn(Cc2cccc(C(=O)O)c2)c(C)c1[N+](=O)[O-],> 41.3
13,O=[N+]([O-])c1ccccc1S(=O)(=O)c1ccccc1[N+](=O)[O-],0.8
14,COc1ccc(C(=O)OCC(=O)NC(=O)NC2CCCC2)c(O)c1,4.1
15,CC12CC3CC(C)(C1)CC(C(=O)NCc1cccnc1)(C3)C2,> 44.8
16,O=C(NC1CCSC1)c1cccc(Cl)c1 (centres undefined),> 36.3
17,CCc1ccc(C(=O)Nc2cc(S(=O)(=O)N3CCOCC3)ccc2N2CCOCC2)cc1,2.5
18,O=C(Nc1ccccc1)Nc1ccccc1Br,2.1
19,CCOC(=O)c1ccc(NC(=O)NCc2ccccc2OC)cc1,2.4
20,OCCN(CC#CCC(O)(c1ccccc1)C1CCCC1)CCO (centres undefined),> 49.7
21,CCc1ccc(Nc2nc(C)cc(C)c2C(N)=O)cc1,> 40.4
22,CC(=O)Nc1cc(C)c2nc(NC(C)=O)sc2c1,25.7
23,COC(=O)c1ccc(N2C(=O)C3C4C=CC(CC4)C3C2=O)cc1 (centres undefined),20.1
24,Cc1ccccc1NC(=O)c1ccc(S(=O)(=O)N2CCCC2)cc1,> 51.7

row,Structure (SMILES),solubility kinetic [µg/mL]
1,CC(=O)c1ccc2noc(-c3ccccc3)c2c1,31.8
2,COC(=O)c1ccc(/C=C/C(=O)OCC(=O)c2ccc[nH]2)cc1,6.8
3,Cc1cccc(NC2=C(Cl)C(=O)OC2OC(=O)c2ccco2)c1 (centres undefined),35.1
4,NS(=O)(=O)c1ccc(CCNC(=O)C2CCCO2)cc1 (centres undefined),> 44.8
5,Cc1noc(C)c1COC(=O)CNC(=O)c1cccc(F)c1,45.9
6,O=C(NCc1ccccc1)c1ccc2ccccc2n1,26.3
7,Cc1cccc(NC(=O)CCCn2c(=S)[nH]c3ccccc3c2=O)c1,0.3
8,COc1ccc(CCNC(=O)c2cnc(C)cn2)cc1,> 40.7
9,CN(C)C(=O)N(CCCN1CCOCC1)Cc1cccc2ccccc12,> 53.3
10,c1cncc(-c2noc(-c3ccc4ccccc4c3)n2)c1,< 0.2
11,COc1ccccc1CN1CCN(S(=O)(=O)c2ccc(C)cc2)CC1,1
12,COC(=O)c1ccc(NC(=S)NCCCN2CCCC2=O)cc1,> 50.3
13,Cc1ccnc(NCc2ccccc2O)c1,23
14,O=[N+]([O-])c1ccc2nc(-c3ccccc3)oc2c1,0.4
15,Clc1ccc(Cl)c(OCCN2CCCC2)c1,25.4
16,COc1cccc(CNc2ccc([N+](=O)[O-])cc2C)c1,1.3
17,Cc1sc2c(c1C)C(=O)/C(=C\Nc1ccncc1)S(=O)(=O)N2C,1.9
18,Cc1cccc(N2C(S)=C(C#N)C(=O)NC2c2ccco2)c1 (centres undefined),> 46.7
19,O=C(CC1Sc2ccccc2NC1=O)NCc1ccccc1 (centres undefined),0.4
20,CC1CCc2[nH]c3ccc(C(=O)NCCCOC(C)C)cc3c2C1 (centres undefined),> 49.3
21,C/C=C/c1ccc(OCCCCN2CCC(C)CC2)c(OC)c1,33.9
22,O=C(CCNC(=O)c1ccccc1Cl)Nc1ccccc1N1CCCC1,48.6
23,COc1cccc(C(=O)N2CCn3c2nc2ccccc23)c1,> 44
24,O=S(=O)(NCc1ccccc1)c1cccc2nsnc12,44.2

row,Structure (SMILES),solubility kinetic [µg/mL]
1,COc1ccc(C2(C)NC(=O)N(CC(=O)NCC(=O)Nc3ccc(F)c(F)c3F)C2=O)cc1OC (centres undefined),0.5
2,COc1ccccc1N(C)S(=O)(=O)c1ccc(C(=O)O)cc1,> 48.2
3,CCc1cccc(C)c1NC(=O)CN1C(=O)NC(CCc2ccccc2)C1=O (centres undefined),7.6
4,CCc1ccc(NC(=O)NC(C)c2ccc3c(c2)OCO3)cc1 (centres undefined),1
5,Cc1ccc2nc(SCC(=O)Nc3nonc3C)[nH]c2c1,> 45.5
6,COc1ccc(NC(=S)NCCNC(C)=O)cc1,35.4
7,O=C(OCC(=O)N1CCC(Cc2ccccc2)CC1)c1cc(Br)ccc1O,6
8,C=CCc1cc(C)ccc1OCCCn1ccnc1.O=C(O)C(=O)O,29.1
9,CN(C)c1ccc(C(=O)NCCCSc2ccccc2)cc1,3.9
10,C#CC(C)(C)NC(=O)c1ccc(-c2ccccc2F)cc1,< 0.6
11,O=C(CCc1ccccc1)Nc1cc2c3c(c1)CCC(=O)N3CCC2,40.3
12,CC(=O)NCCc1nc2ccccc2n1CCOc1ccccc1,> 48.5
13,Cc1ccc(CN2CCN(c3ccccc3Cl)CC2)o1,10
14,COc1c(Cl)cc(Cl)cc1C(=O)Nc1ccc(CN2CCOCC2)cc1,2.6
15,CCOC(=O)c1cc(CC)sc1/N=C/C1C(=O)CCCC1=O,19.5
16,CC1=C(C(=O)Nc2cccc(C(=O)NC(C)C)c2)SCCO1,47.9
17,N#Cc1ccc(Oc2ccc(NC(=O)C3CC=CCC3C(=O)O)cc2)cc1 (centres undefined),> 54.4
18,C=CCNc1nc(Cl)nc(NCc2ccco2)n1,1.9
19,O=C(CCN1CCN(c2ccccc2)CC1)Nc1ccccc1,40.9
20,Cc1cc(C)nc(N2C(=O)CC(Cc3ccc(Cl)cc3)C2=O)n1 (centres undefined),> 49.5
21,CC1(/[N+]([O-])=C/c2ccc(Cl)cc2Cl)CCCCC1=O (centres undefined),42.9
22,CCn1cc(C=C2C(=O)NC(=O)NC2=O)c2ccccc21,1.8
23,COc1ccc(N2CC(C(=O)NC3CCCCC3)CC2=O)cc1 (centres undefined),25.3
24,O=[N+]([O-])c1ccccc1CN1CCN(Cc2ccc3ccccc3c2)CC1,3.9

row,Structure (SMILES),solubility kinetic [µg/mL]
1,Cc1nc2ccc(Br)cc2c(-c2ccccc2)c1C(=O)O,> 51.3
2,CN(C)C(=O)CSc1ccc(S(=O)(=O)N2CCCC2)cn1,> 49.4
3,COC(=O)c1ccc2c(c1)NC(=O)c1ccccc1S2,3.9
4,CCC(C(=O)OC)n1c(-c2ccccc2)nc2ccccc2c1=O (centres undefined),1.5
5,O=C(CNCc1ccc(Cl)cc1)N1CCc2ccccc2C1,36.8
6,COc1ccc(Cc2noc(-c3ccc([N+](=O)[O-])cc3)n2)cc1OC,2
7,O=C1OC(C(=O)Nc2ccccc2)Cc2ccccc21 (centres undefined),10.9
8,CCOC(=O)N1CCc2c(sc(N)c2C#N)C1,31.2
9,COc1ccc(C)cc1NC(=O)CN1C(=O)COc2ccc(C)cc21,2.1
10,C=CCNC(=S)N(Cc1ccccc1)Cc1ccc(F)cc1,14
11,Cc1csc(C(=O)O)c1NC(=O)c1ccc(F)cc1,> 41.9
12,C=CCOC(=O)C1=C(C)NC(=O)NC1c1ccc(O)cc1 (centres undefined),> 43.2
13,Cc1cccc(-n2cnc(C(=O)N3CCN(C)CC3)c2)n1,> 42.8
14,O=C(c1ccc2nc(Cc3ccccc3F)oc2c1)N1CCCC1,33.5
15,COS(=O)(=O)[O-].Cn1c(-c2ccc3ccccc3n2)[n+](C)c2ccccc21,> 57.8
16,O=S(=O)(c1cccs1)N1CCN(c2ccc(F)cc2)CC1,9.6
17,Cl.Clc1cccc(OCCn2ccnc2)c1,> 38.9
18,COc1ccc(S(=O)(=O)NC(C)C(=O)N2CCCC2)cc1Cl (centres undefined),47
19,Cc1ccc(NC(=O)C(=O)NCC2CCCO2)cc1C (centres undefined),> 41.5
20,O=C(Nc1ccccn1)c1ccc2ccccc2c1O,31.4
21,CC1=C(C(=O)NC(C)c2ccccc2)C2(CCC(C)CC2)OC1=O (centres undefined),8.4
22,O=C(/C=C/c1cccs1)N1CCCC1,> 31.1
23,COc1ccccc1NS(=O)(=O)c1ccc2oc(=S)[nH]c2c1,> 50.5
